Results reported in ChEMBL document CHEMBL1201862, “PubChem BioAssay data set” (2004).
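Dose response: 5 concentrations. Exposure: 48 h. Format: 96-well plates. Endpoint: linear interpolation; highest concentration if not reached. Abbreviation: GI50, concentration required for 50% inhibition of growth.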 Active and inactive are the calls of the source. Rule as the data show it: active = GI50 up to about 1.1 µM and inactive = higher.

How the values were obtained:
Experiment in all cases: NCI tumour cell line growth inhibition, 48 h
BT-549 = system: BT-549
HCC 2998 = system: HCC 2998
HOP-62 = system: HOP-62
HT-29 = system: HT-29
IGROV-1 = system: IGROV-1
MOLT-4 = system: MOLT-4
NCI-H23 = system: NCI-H23
NCI/ADR-RES = system: NCI/ADR-RES
OVCAR-4 = system: OVCAR-4
PC-3 = system: PC-3
RPMI-8226 = system: RPMI-8226
SNB-19 = system: SNB-19
SNB-75 = system: SNB-75
SR = system: SR
TK-10 = system: TK-10
A498 = system: A498
COLO 205 = system: COLO 205
DU-145 = system: DU-145
RXF 393 = system: RXF 393

SMILES | GI50 (BT-549) | GI50 (HCC 2998) | GI50 (HOP-62) | GI50 (HT-29) | GI50 (IGROV-1) | GI50 (MOLT-4) | GI50 (NCI-H23) | GI50 (NCI/ADR-RES) | GI50 (OVCAR-4) | GI50 (PC-3) | GI50 (RPMI-8226) | GI50 (SNB-19) | GI50 (SNB-75) | GI50 (SR) | GI50 (TK-10) | GI50 (A498) | GI50 (COLO 205) | GI50 (DU-145) | GI50 (RXF 393)
CN1CC(c2ccccc2)=CC2=C1C=CC(=N)/C2=N\N | 52.2 µM (inactive) | > 100 µM (inactive) | 71.8 µM (inactive) | > 100 µM (inactive) | > 100 µM (inactive) | > 100 µM (inactive) | > 100 µM (inactive) | 47.1 µM (inactive) | > 100 µM (inactive) | > 100 µM (inactive) | > 100 µM (inactive) | 86.9 µM (inactive) | 20.9 µM (inactive) | > 100 µM (inactive) | > 100 µM (inactive) | – | – | – | –
CCCC1C(C#N)(C#N)C(C#N)=C(N)C1(C)C(C)=O (stereo not drawn) | – | > 100 µM (inactive) | – | > 100 µM (inactive) | > 100 µM (inactive) | > 100 µM (inactive) | > 100 µM (inactive) | > 100 µM (inactive) | – | > 100 µM (inactive) | > 100 µM (inactive) | > 100 µM (inactive) | 4.42 µM (inactive) | – | > 100 µM (inactive) | > 100 µM (inactive) | 65 µM (inactive) | > 100 µM (inactive) | 71 µM (inactive)
Cc1ccc(NCCCN2CCN(CCCNc3ccc(C)c4sc5ccccc5c(=O)c34)CC2)c2c(=O)c3ccccc3sc12 | – | > 100 µM (inactive) | > 100 µM (inactive) | > 100 µM (inactive) | > 100 µM (inactive) | > 100 µM (inactive) | > 100 µM (inactive) | > 100 µM (inactive) | > 100 µM (inactive) | 21.4 µM (inactive) | > 100 µM (inactive) | > 100 µM (inactive) | 20.6 µM (inactive) | > 100 µM (inactive) | – | 82 µM (inactive) | > 100 µM (inactive) | 71.6 µM (inactive) | 39.4 µM (inactive)
CC1(C)[C@@H]2CC[C@@]1(C)[C@@H]1O[C@@H](O[C@@H](CN)c3cc(Cl)c(OCc4ccccc4)c(OCc4ccccc4)c3)C[C@H]21 | – | – | 0.179 µM (active) | 0.151 µM (active) | 0.179 µM (active) | 0.16 µM (active) | – | – | 0.162 µM (active) | 0.158 µM (active) | 0.0463 µM (active) | 0.183 µM (active) | 0.163 µM (active) | 0.0627 µM (active) | 0.177 µM (active) | 0.199 µM (active) | 0.11 µM (active) | 0.191 µM (active) | 0.15 µM (active)
Cc1c(/C=N/NS(=O)(=O)c2ccccc2)no[n+]1[O-] | – | – | – | > 100 µM (inactive) | > 100 µM (inactive) | > 100 µM (inactive) | > 100 µM (inactive) | – | > 100 µM (inactive) | – | > 100 µM (inactive) | 37.9 µM (inactive) | – | > 100 µM (inactive) | > 100 µM (inactive) | > 100 µM (inactive) | > 100 µM (inactive) | – | > 100 µM (inactive)
CN(C)CCNc1nc2c(no[n+]2[O-])c2ccccc12.[O-][Cl+3]([O-])([O-])O | – | 28.2 µM (inactive) | 13 µM (inactive) | 27.6 µM (inactive) | 18 µM (inactive) | 32.4 µM (inactive) | 34.4 µM (inactive) | 31.2 µM (inactive) | 30.4 µM (inactive) | 28 µM (inactive) | 52.7 µM (inactive) | 20.7 µM (inactive) | 23.7 µM (inactive) | 15.1 µM (inactive) | 24.9 µM (inactive) | 13.7 µM (inactive) | 16.9 µM (inactive) | 6.19 µM (inactive) | 17.5 µM (inactive)
CC(=O)OC[C@]1(C)CCCC2(C)C1CCC1C=C(C)[C@H]3CCC12C3 (stereo partly drawn) | – | > 100 µM (inactive) | 50.9 µM (inactive) | 43.3 µM (inactive) | > 100 µM (inactive) | > 100 µM (inactive) | 94.4 µM (inactive) | – | > 100 µM (inactive) | – | 62.7 µM (inactive) | > 100 µM (inactive) | 31.8 µM (inactive) | > 100 µM (inactive) | > 100 µM (inactive) | – | 38.5 µM (inactive) | – | 44.4 µM (inactive)
COc1cc2ccc3c4cc(OC)c(OCc5ccccc5)cc4cnc3c2cc1OC | – | > 100 µM (inactive) | > 100 µM (inactive) | > 100 µM (inactive) | > 100 µM (inactive) | 70.6 µM (inactive) | > 100 µM (inactive) | – | > 100 µM (inactive) | – | 61.9 µM (inactive) | – | > 100 µM (inactive) | – | > 100 µM (inactive) | > 100 µM (inactive) | > 100 µM (inactive) | – | –
NC(=O)c1ncn(C2C=CC(CP(=O)(O)O)C2)c1N (stereo not drawn) | – | > 100 µM (inactive) | > 100 µM (inactive) | > 100 µM (inactive) | > 100 µM (inactive) | > 100 µM (inactive) | > 100 µM (inactive) | > 100 µM (inactive) | > 100 µM (inactive) | > 100 µM (inactive) | > 100 µM (inactive) | > 100 µM (inactive) | > 100 µM (inactive) | > 100 µM (inactive) | > 100 µM (inactive) | – | > 100 µM (inactive) | > 100 µM (inactive) | > 100 µM (inactive)
Cn1c2c(c3ccccc31)CCN1OCC=C[C@@H](C(=O)O)[C@@H]21 | – | > 100 µM (inactive) | > 100 µM (inactive) | > 100 µM (inactive) | > 100 µM (inactive) | – | – | > 100 µM (inactive) | > 100 µM (inactive) | > 100 µM (inactive) | – | > 100 µM (inactive) | 82 µM (inactive) | > 100 µM (inactive) | > 100 µM (inactive) | > 100 µM (inactive) | > 100 µM (inactive) | > 100 µM (inactive) | > 100 µM (inactive)
Cc1cccc(NC2=NCCO2)c1Cl | – | > 100 µM (inactive) | > 100 µM (inactive) | > 100 µM (inactive) | > 100 µM (inactive) | > 100 µM (inactive) | > 100 µM (inactive) | > 100 µM (inactive) | > 100 µM (inactive) | – | > 100 µM (inactive) | > 100 µM (inactive) | > 100 µM (inactive) | > 100 µM (inactive) | > 100 µM (inactive) | > 100 µM (inactive) | > 100 µM (inactive) | > 100 µM (inactive) | > 100 µM (inactive)
Oc1ccc2ccccc2c1CCc1c(O)ccc2ccccc12 | – | 3.81 µM (inactive) | 13.5 µM (inactive) | 4.41 µM (inactive) | – | – | 11.8 µM (inactive) | 13.6 µM (inactive) | – | 13.9 µM (inactive) | 7.01 µM (inactive) | 16.9 µM (inactive) | 3.66 µM (inactive) | 12 µM (inactive) | 18.6 µM (inactive) | 18.5 µM (inactive) | 15.7 µM (inactive) | – | 11.7 µM (inactive)
CNC(=O)C1CCC(=O)N1CN(C(C)=O)c1ccccc1 (stereo not drawn) | – | – | > 100 µM (inactive) | > 100 µM (inactive) | > 100 µM (inactive) | > 100 µM (inactive) | > 100 µM (inactive) | > 100 µM (inactive) | > 100 µM (inactive) | > 100 µM (inactive) | > 100 µM (inactive) | > 100 µM (inactive) | > 100 µM (inactive) | 13.6 µM (inactive) | > 100 µM (inactive) | > 100 µM (inactive) | > 100 µM (inactive) | > 100 µM (inactive) | > 100 µM (inactive)
